System: not given
Experiment: not given
Conditions: kidneys; cited from earlier work
For `N=C(N)NN` [Aminoguanidine], the “reduction of the excretion of albumin in diabetics” value is given as 90%.

Biological target: bovine serum albumin (BSA) (Bos taurus, UniProt P02769)
Sequence (P02769 25-607): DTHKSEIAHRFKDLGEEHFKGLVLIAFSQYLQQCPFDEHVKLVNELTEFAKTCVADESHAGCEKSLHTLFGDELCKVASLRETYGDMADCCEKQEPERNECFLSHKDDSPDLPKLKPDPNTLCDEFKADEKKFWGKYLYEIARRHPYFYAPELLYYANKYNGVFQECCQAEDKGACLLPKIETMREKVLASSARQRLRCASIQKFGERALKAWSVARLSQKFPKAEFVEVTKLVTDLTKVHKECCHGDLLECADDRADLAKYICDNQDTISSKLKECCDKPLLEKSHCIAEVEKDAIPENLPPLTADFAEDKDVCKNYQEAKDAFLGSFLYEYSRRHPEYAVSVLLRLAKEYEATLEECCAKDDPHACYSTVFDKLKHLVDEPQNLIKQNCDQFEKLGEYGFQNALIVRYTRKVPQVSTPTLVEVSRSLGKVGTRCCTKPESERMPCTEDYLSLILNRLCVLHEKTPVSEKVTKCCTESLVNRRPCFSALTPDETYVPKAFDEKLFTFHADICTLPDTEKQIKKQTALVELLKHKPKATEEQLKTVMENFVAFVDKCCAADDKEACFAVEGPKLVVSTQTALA
Experiment: Inhibition of the formation of AGEs in a BSA/reducing sugar solution, measured by fluorescence
Format: biochemical
Conditions: Example 4, comparison with anthocyanins of the prior art; fluorescence versus positive control 1.5 mM aminoguanidine; quenching taken into account
Procedure: The preparation of a solution containing a protein and a reducing sugar was carried out extemporaneously as follows: a solution of bovine serum albumin (BSA) at a concentration between 1.5 μM and 1.5M, preferably between 15 μM and 500 μM, was incubated with a solution of a reducing sugar such as glucose, fructose, ribose, etc., preferably with glucose, at a concentration between 0.1M and 10M, preferably between 0.5M and 5M. […]
The protein/reducing sugar solution prepared in 1 was incubated with or without (negative control) the presence of an extract obtained in 2, at a temperature between 40 and 60° C., preferably at around 50° C. for 1 to 5 weeks, preferably for 3 weeks. The active substances obtained by extraction according to the protocol described in paragraph 2—extracts were tested at a concentration between 0.001 and 10%, preferably between 0.01 and 5% and more particularly at 1% by weight in the protein/reducing sugar preparation. The positive control used was aminoguanidine at a concentration between 15 μM and 150 mM, preferably at a concentration between 1.5 mM and 15 mM in water. The measure of the inhibition of the AGEs was carried out by measuring the fluorescence (excitation wavelength between 350 and 375 nm, preferably at 355 nm; emission wavelength between 420 and 450 nm, preferably at 430 nm). The inhibition was calculated by deducing the resulting value of the interaction of the plant extracts with the molecules of the reaction medium (quenching).
The preparation of a protein/reducing sugar solution was carried out according to the method described in Example 1 (paragraph 1). The molecules were tested at a concentration between 1×10^−7 and 1×10^−1%, and preferably between 1×10^−5 and 1×10^−1%, and in particular at 1×10^−1%, for example in water or in DMSO.
With `OC[C@H]1O[C@@H](Oc2cc3c(O)cc(O)cc3[o+]c2-c2ccc(O)c(O)c2)[C@H](O)[C@@H](O)[C@H]1O.[Cl-]` [Idaein chloride, reference compound] the “% inhibition” value was 0%.
In the case of `OC[C@H]1O[C@@H](Oc2cc3c(O)cc(O)cc3[o+]c2-c2ccc(O)c(O)c2)[C@H](O)[C@@H](O)[C@@H]1O.[Cl-]` [Kuromanin Chloride, reference compound], the “% inhibition” value is reported as 0%.
With `COc1cc(-c2[o+]c3cc(O)cc(O[C@@H]4O[C@H](CO)[C@@H](O)[C@H](O)[C@H]4O)c3cc2O[C@@H]2O[C@H](CO)[C@@H](O)[C@H](O)[C@H]2O)cc(OC)c1O.[Cl-]` [Malvin Chloride, reference compound] the “% inhibition” value was 0%.
In the case of `OC[C@H]1O[C@@H](Oc2cc3c(O[C@@H]4O[C@H](CO)[C@@H](O)[C@H](O)[C@H]4O)cc(O)cc3[o+]c2-c2ccc(O)cc2)[C@H](O)[C@@H](O)[C@@H]1O.[Cl-]` [Perlargonin chloride, reference compound], the “% inhibition” value is reported as 0%.

Same assay, conditions: characterized molecules, in particular at 1×10^−1% in water or DMSO; BSA/reducing sugar; fluorescence versus positive control 1.5 mM aminoguanidine
With `O=C1C=CC(=O)c2cc3ccccc3cc21` [1,4-Anthraquinone] the “% inhibition” value was 89.6%.
With `Nc1c(CO)ccc2c1C(=O)c1ccccc1C2=O` [1-Amino-2-hydroxymethylanthraquinone] the “% inhibition” value was 66.0%.
In the case of `Nc1ccc(O)cc1` [4-Aminophenol], the “% inhibition” value is reported as 78.5%.
For `O=C(/C=C/c1ccc(O)cc1)c1ccccc1` [4-Hydroxychalcone], the “% inhibition” value was 81.4%.
With `Oc1ccccc1O` [Catechol] the “% inhibition” value was 88.3%.
For `O=C1C[C@@H](c2ccc(O)cc2)Oc2cc(O[C@@H]3O[C@H](CO)[C@@H](O)[C@H](O)[C@H]3O)cc(O)c21` [Prunin], the “% inhibition” value was 67.9%.
With `O=C([O-])c1ccccc1-c1c2cc(I)c(=O)c(I)c-2oc2c(I)c([O-])c(I)cc12.[Na+].[Na+]` [Sodium erythrosine] the “% inhibition” value was 95.6%.
